Source: patent publication US20160008277A1, “CO-PACKAGED DRUG PRODUCTS” (Lightlake Therapeutics Inc., priority 2014, published 2016)
Like-named read-outs stand apart in the source and are kept apart here.

Legend:
[1] = tested on: heroin overdose; conditions: cited from earlier work
[2] = 400 μL, cited from earlier work
[3] = 2 mg nasal solution dose; cited from earlier work
[4] = clinical; conditions: human, plasma; for AUC(0-t): AUC0-t; for AUC(0-inf): AUC0-∞
[5] = clinical; conditions: human, plasma
[6] = im, 0.4 mg, GLSM, 0.4 mg IM, no dose adjustment
[7] = other: intranasal, 2 mg, GLSM, 2 mg IN, no dose adjustment
[8] = other: intranasal, 2 mg, Mean, 2 mg IN
[9] = other: intranasal, 4 mg, GLSM, 4 mg IN, no dose adjustment
[10] = other: intranasal, 4 mg, Mean, 4 mg IN

For `C=CCN1CC[C@]23c4c5ccc(O)c4O[C@H]2C(=O)CC[C@@]3(O)[C@H]1C5` [naloxone, 17-allyl-4,5a-epoxy-3,14-dihydroxymorphinan-6-one], the “rate of response within 10 minutes” value ([1]; 2 mg IN naloxone, 60/83) is listed as 72.3%, the “patients administered supplementary naloxone” value ([1]; IM naloxone) is listed as 4.5% and the mean response time ([1]; IN naloxone) is listed as 8.0 min. The mean response time ([1]; IV naloxone) was 7.9 min, the “mean Tmax” value ([2]; 8 mg IN) was 20.4 min and the “mean Tmax” value ([2]; 16 mg IN) was 23.4 min. The “Cmax (predicted by Wermeling)” value [3] was 3 to 5 ng/mL, the “tmax (predicted by Wermeling)” value [3] was “approximately 20 minutes” and the AUC(0-t) [4, 6] was 1.35 ng·h/mL. The AUC(0-t) ([4]; im, 0.4 mg, Mean, 0.4 mg IM) was 1.38 ng·h/mL, the AUC(0-inf) [4, 6] was 1.39 ng·h/mL and the AUC(0-inf) ([4]; im, 0.4 mg, Mean, 0.4 mg IM) was 1.42 ng·h/mL. It also gave a Tmax ([4]; im, 0.4 mg, GLSM, 0.4 mg IM) of 18.5 min, a Tmax ([4]; im, 0.4 mg, Mean, 0.4 mg IM) of 20.3 min and an AUC(0-t) [4, 7] of 3.28 ng·h/mL. The AUC(0-t) [4, 8] was 3.41 ng·h/mL, the AUC(0-inf) [4, 7] was 3.32 ng·h/mL and the AUC(0-inf) [4, 8] was 3.44 ng·h/mL. The Tmax ([4]; other: intranasal, 2 mg, GLSM, 2 mg IN) was 20 min, the Tmax [4, 8] was 20 min and the AUC(0-t) [4, 9] was 5.41 ng·h/mL. The AUC(0-t) [4, 10] was 5.63 ng·h/mL, the AUC(0-inf) [4, 9] was 5.47 ng·h/mL and the AUC(0-inf) [4, 10] was 5.68 ng·h/mL. For the same compound, the Tmax ([4]; other: intranasal, 4 mg, GLSM, 4 mg IN) was 17.5 min, the Tmax [4, 10] was 18.4 min and the Cmax ([5]; female, im, 0.4 mg, 0.4 mg IM) was 1.06 ng/mL. For the same compound, the Tmax ([5]; female, im, 0.4 mg, Tmax (median), 0.4 mg IM) was 19.8 min, the Tmax ([5]; female, other: intranasal (IN), 4 mg, Tmax (median), One 40 mg/mL IN, Female) was 30 min and the Tmax ([5]; female, other: intranasal (IN), 8 mg, Tmax (median), Two 40 mg/mL IN, Female) was 17.4 min. For the same compound, the Cmax ([5]; female, other: intranasal, 2 mg, One 20 mg/mL IN, Female) was 2.79 ng/mL, the Tmax ([5]; female, other: intranasal, 2 mg, Tmax (median), One 20 mg/mL IN, Female) was 19.8 min and the Cmax ([5]; female, other: intranasal, 4 mg, One 40 mg/mL IN, Female) was 5.12 ng/mL. It also gave a Cmax ([5]; female, other: intranasal, 4 mg, Two 20 mg/mL IN, Female) of 6.62 ng/mL, a Tmax ([5]; female, other: intranasal, 4 mg, Tmax (median), Two 20 mg/mL IN, Female) of 19.8 min and a Cmax ([5]; female, other: intranasal, 8 mg, Two 40 mg/mL IN, Female) of 9.52 ng/mL. For the same compound, the Cmax ([5]; im, 0.4 mg, mean (% CV), 0.4 mg IM) was 0.906 ng/mL, the Tmax ([5]; im, 0.4 mg, Tmax (median, range), 0.4 mg IM) was 25.2 min and the Cmax ([5]; other: intranasal, 2 mg, mean (% CV), One Spray - 2 mg 20 mg/mL IN) was 3.11 ng/mL. The Tmax ([5]; other: intranasal, 2 mg, Tmax (median, range), One Spray - 2 mg 20 mg/mL IN) was 19.8 min, the Cmax ([5]; other: intranasal, 4 mg, mean (% CV), One Spray - 4 mg 40 mg/mL IN) was 5.34 ng/mL and the Cmax ([5]; other: intranasal, 4 mg, mean (% CV), Two Sprays - 4 mg 20 mg/mL IN) was 6.63 ng/mL. It also gave a Tmax ([5]; other: intranasal, 4 mg, Tmax (median, range), One Spray - 4 mg 40 mg/mL IN) of 30 min, a Tmax ([5]; other: intranasal, 4 mg, Tmax (median, range), Two Sprays - 4 mg 20 mg/mL IN) of 19.8 min and a Cmax ([5]; other: intranasal, 8 mg, mean (% CV), Two Sprays - 8 mg 40 mg/mL IN) of 10.3 ng/mL. For the same compound, the Tmax ([5]; other: intranasal, 8 mg, Tmax (median, range), Two Sprays - 8 mg 40 mg/mL IN) was 19.8 min, the Cmax ([5]; male, im, 0.4 mg, 0.4 mg IM) was 0.792 ng/mL and the Tmax ([5]; male, im, 0.4 mg, Tmax (median), 0.4 mg IM) was 30 min. For the same compound, the Tmax ([5]; male, other: intranasal (IN), 4 mg, Tmax (median), One 40 mg/mL IN, Male) was 30 min, the Tmax ([5]; male, other: intranasal (IN), 8 mg, Tmax (median), Two 40 mg/mL IN, Male) was 25.2 min and the Cmax ([5]; male, other: intranasal, 2 mg, One 20 mg/mL IN, Male) was 3.35 ng/mL. For the same compound, the Tmax ([5]; male, other: intranasal, 2 mg, Tmax (median), One 20 mg/mL IN, Male) was 19.8 min, the Cmax ([5]; male, other: intranasal, 4 mg, One 40 mg/mL IN, Male) was 5.51 ng/mL and the Cmax ([5]; male, other: intranasal, 4 mg, Two 20 mg/mL IN, Male) was 6.64 ng/mL. The Tmax ([5]; male, other: intranasal, 4 mg, Tmax (median), Two 20 mg/mL IN, Male) was 15 min and the Cmax ([5]; male, other: intranasal, 8 mg, Two 40 mg/mL IN, Male) was 10.9 ng/mL.
